Results: patent US8796267B2, “Oxazolidinone derivatives and methods of use” (Concert Pharmaceuticals, Inc., priority 2006, dated 2014)
Converted amounts (≈) assume the structure as drawn. Read-outs that look alike come from different tables or passages of the source.

How the values were obtained:
S. pyogenes = assay: MIC assay (broth microdilution); type: cell-based; conditions: Streptococcus pyogenes; read-out: potency (MIC90)
Experimental: (§1) The three test compounds were stored at 4° C. until tested.
(§2) All test articles and drugs were dissolved in 50% dimethyl sulfoxide (DMSO) at one-half the volume needed to prepare the stock solution. Once the compound was in solution, the rest of the volume was added as sterile deionized water. The drug solutions were allowed to stand at room temperature for 1 hr to allow for auto-sterilization. Stock solutions were prepared at 40-fold the highest final test concentration in the test plate. The final concentration of DMSO in the assay was 2.5%.
(§3) The test organisms were obtained from clinical laboratories; quality control cultures were from the American Type Culture Collection. The test groups included Staphylococcus aureus, Staphylococcus epidermidis, Enterococcus faecalis, Enterococcus faecium, Streptococcus pneumoniae, Streptococcus pyogenes, Streptococcus agalactiae, Haemophilus influenzae, and Moraxella catarrhalis. Various phenotypic susceptibility/resistance groups were represented. Organisms received were streaked for isolation on agar medium appropriate to each organism. Colonies were picked by swab from the isolation plates and put into suspension in the appropriate media containing a cryoprotectant. The suspensions were aliquoted into cryogenic vials and maintained at −80° C. The isolates were thawed and passaged on the appropriate agar medium: Trypticase Soy agar (TSA) for most organisms, TSA plus 5% sheep blood for streptococci, and chocolate agar for Haemophilus. The plates were incubated overnight at 35° C. Haemophilus plates were incubated in the presence of CO2.
(§4) The medium employed for the MIC assay was Mueller Hinton II Broth (MHB II-Becton Dickinson, Sparks, Md. #212322, Lot #7143673) for most of the organisms. MHB II was supplemented with 2% lysed horse blood (Cleveland Scientific Lot #H93152) to accommodate the growth of Streptococcus pneumoniae. Haemophilus influenzae was tested in Haemophilus Test Medium. On the day of the test, the medium to be used in the daptomycin row of the daughters was supplemented with calcium ions to the final concentration of 50 μg/mL, taking into account the calcium that was already present in the medium.
(§5) The MIC assay method followed the procedure described by the Clinical and Laboratory Standards Institute and employed automated liquid handlers to conduct serial dilutions and liquid transfers. Automated liquid handlers included the Multidrop 384, Labsystems, Helsinki, Finland; Biomek 2000 and Multimek 96, Beckman Coulter, Fullerton Calif. The wells of standard 96-well microdilution plates (Falcon 3918) were filled with 150 μL of DMSO:deionized H2O (1:1) on the Multidrop 384. The drugs were dispensed into Column 1 of a deep well plate. The Biomek 2000 transferred 150 μL of each drug into one well in Column 1 of a “mother plate” and completed serial transfers through Column 11 in the mother plates. The wells of Column 12 contained no drug and were the organism growth control wells.
(§6) The daughter plates were loaded with 85 μL of the appropriate test media described above using the Multidrop 384. The daughter plates were prepared on the Multimek 96 instrument which transferred 5 μL of drug solution from each well of a mother plate to each corresponding well of each daughter plate in a single step.
(§7) Standardized inoculum of each organism was prepared per CLSI methods (Clinical and Laboratory Standards Institute. Methods for Dilution Antimicrobial Susceptibility Tests for Bacteria That Grow Aerobically; Approved Standard—Seventh Edition. Clinical and Laboratory Standards Institute document M7-A7 [ISBN 1-56238-587-9]. Clinical and Laboratory Standards Institute, 940 West Valley Road, Suite 1400, Wayne, Pa. 19087-1898 USA, 2006). Suspensions were prepared in MHB to equal a 0.5 McFarland standard. The suspensions were diluted 1:19 in broth appropriate to the organism. […]

community-acquired MRSA = assay: MIC assay (broth microdilution); type: cell-based; conditions: Staphylococcus aureus, clinical isolates
Experimental: as §1, §2, §3, §4, §5, §6, §7

[1] = test system: methicillinsensitive S. aureus (MSSA); assay: MIC assay (broth microdilution); type: cell-based; conditions: Staphylococcus aureus, clinical isolates
Experimental: as §1, §2, §3, §4, §5, §6, §7

[2] = test system: antibiotic resistant Grampositive pathogens including MRSA, VRE, and PRSP; assay: In vitro antibacterial activity, overall conclusion; type: cell-based; conditions: in words
Experimental: as §1, §2
as §3, with “The isolates were thawed and passaged on the appropriate agar medium: Trypticase Soy agar (TSA) for most organisms, TSA plus 5% sheep blood for streptococci, and chocolate agar for Haemophilus. The plates were incubated overnight at 35° C. Haemophilus plates were incubated in the presence of CO2.” left out

in vivo [3] = conditions: 150 mg; for AUC(0-t): both, chimpanzee, po; for half-life: iv
Experimental: The dosing solution is then filtered through a 0.22 μm filter prior to dosing.
(§8) Four chimpanzees (two male and two female) were used in the study. One male and one female were used for the intravenous study and one male and one female were used for the oral dosing study. All animals were fasted overnight prior to dosing. For all studies animals were sedated with ketamine (approx. 10 mg/ml) or telazol (approx. 5 mg/ml) prior to dosing. […] Intravenous doses were administered (150 ml at 2 mg/ml combined drugs) by infusion over a 30 minute period. Oral doses were administered in a volume of 150 ml at 2 mg/ml combined drugs.
(§9) For the intravenous study, a 4.5 ml aliquot of blood was taken from each animal prior to the start of infusion, 15 minutes after the start of infusion, and immediately before the end of infusion. Additional samples were taken at 6, 15, 30, and 60 minutes and 1.5, 2, 4, 6, 8 and 24 hours following infusion. For the oral study, 4.5 ml aliquots of blood were taken from each animal prior to doing and then at 15, 20 and 60 minutes and 1.5, 2, 4, 6, 8 and 24 hours post dosing. All blood samples were collected into vacutainer tubes containing sodium heparin as an anticoagulant, sufficiently mixed and stored on wet ice. The samples were centrifuged within 1 hour of collection and the plasma collected and frozen at −70° C. until analysis. Urine was also collected from each animal over a 24 hour period following dosing.
Chimp plasma sample (100 μL) was mixed with 300 μL internal standard solution prior to LC-MS/MS analysis. The internal standard was 250 ng/mL haloperidol in acetonitrile/water (90/10, v/v). After protein precipitation, 10 L supernatant was injected to a Zorbax SB-C8 (Rapid Resolution) column (2.1×30 mm, 3.5 μm). The initial mobile phase condition was 100% A (water with 0.1% formic acid) and 0% B (acetonitrile with 0.1% formic acid) with a flow rate at 0.5 mL/min. Mobile phase B was allowed to reach 90% within 2 minutes and held for 1 minute before ramping back 0% at 3.2 minutes. The overall run time was six minutes.

H. influenzae = assay: MIC assay (broth microdilution); type: cell-based, Haemophilus influenzae; conditions: in words
Experimental: as §1, §2, §3
The medium employed for the MIC assay was Mueller Hinton II Broth (MHB II-Becton Dickinson, Sparks, Md. #212322, Lot #7143673) for most of the organisms. MHB II was supplemented with 2% lysed horse blood (Cleveland Scientific Lot #H93152) to accommodate the growth of Streptococcus pneumoniae. Haemophilus influenzae was tested in Haemophilus Test Medium. […]

[4] = in words
Experimental: as §8, §9
Urine samples were similarly analyzed. […]

[5] = test system: mtDNA-encoded protein synthesis in HepG2 cells; assay: Mitochondria Toxicity Study (Complex IV/Frataxin ratio, dipstick); conditions: for IC50: Homo sapiens, HepG2; for mitochondria toxicity: in words, versus linezolid
[6] = test system: vancomycin-resistant E. faecalis; assay: MIC assay (broth microdilution); type: cell-based; conditions: Enterococcus faecalis; clinical isolates
Experimental: as §1, §2, §3, §4, §5, §6, §7

[7] = test system: penicillin-sensitive S. pneumoniae; assay: MIC assay (broth microdilution); type: cell-based; conditions: Streptococcus pneumoniae; 27 isolates
Experimental: as §1, §2, §3, §4, §5, §6, §7

[8] = test system: vancomycin-sensitive E. faecalis; assay: MIC assay (broth microdilution); type: cell-based; conditions: Enterococcus faecalis; clinical isolates
Experimental: as §1, §2, §3, §4, §5, §6, §7

[9] = test system: methicillin-resistant S. epidermidis (MRSE); assay: MIC assay (broth microdilution); type: cell-based; conditions: Staphylococcus epidermidis, clinical isolates
Experimental: as §1, §2, §3, §4, §5, §6, §7

[10] = test system: methicillin-sensitive S. epidermidis (MSSE); assay: MIC assay (broth microdilution); type: cell-based; conditions: Staphylococcus epidermidis; clinical isolates
Experimental: as §1, §2, §3, §4, §5, §6, §7

S. agalactiae = assay: MIC assay (broth microdilution); type: cell-based; conditions: Streptococcus agalactiae
Experimental: as §1, §2, §3, §4, §5, §6, §7

[11] = test system: vancomycin-resistant E. faecium; assay: MIC assay (broth microdilution); type: cell-based; conditions: Enterococcus faecium; clinical isolates
Experimental: as §1, §2, §3, §4, §5, §6, §7

[12] = test system: vancomycin-sensitive E. faecium; assay: MIC assay (broth microdilution); type: cell-based; conditions: Enterococcus faecium; printed only as 'a value'
Experimental: as §1, §2, §3, §4, §5, §6, §7

[13] = test system: penicillin-intermediate S. pneumoniae; assay: MIC assay (broth microdilution); type: cell-based; conditions: Streptococcus pneumoniae; 27 isolates
Experimental: as §1, §2, §3, §4, §5, §6, §7

M. catarrhalis = assay: MIC assay (broth microdilution); type: cell-based; conditions: Moraxella catarrhalis; 30 isolates
Experimental: as §1, §2, §3, §4, §5, §6, §7

[14] = test system: methicillin-resistant S. aureus (MRSA); assay: MIC assay (broth microdilution); type: cell-based; conditions: Staphylococcus aureus, clinical isolates
Experimental: as §1, §2, §3, §4, §5, §6, §7

[15] = test system: penicillin-resistant S. pneumoniae; assay: MIC assay (broth microdilution); type: cell-based; conditions: Streptococcus pneumoniae; 28 isolates
Experimental: as §1, §2, §3, §4, §5, §6, §7

[16] = in words; cited from earlier work
[17] = test system: Cyp isoforms (1A2; 2C9; 2C19; 2D6; 2E1; 3A4); conditions: cited from earlier work
[18] = test system: Vancomycin-Resistant Enterococcus faecium; Staphylococcus aureus; Streptococcus pneumoniae; Streptococcus pyogenes; Streptococcus agalactiae infections; conditions: clinical trials, in words; cited from earlier work
[19] = humans; cited from earlier work
in vivo [20] = conditions: male, Sprague Dawley, rat, po, 5 mg/kg
Experimental: The combo dose was prepared by mixing both by 1:1 to yield a concentration of 5 mg/mL for each compound (pH ˜6) for intravenous and oral administration. The obtained solution was clear and colourless.
Male Sprague Dawley rats (body weight: 170 g to 220 g) were used in this study. Before the pharmacokinetic studies, animals were randomly assigned to the treatment groups.
The plasma samples and the dose formulation were stored at −20° C. until bioanalysis. Sample Analysis
Plasma samples (0.1 mL) were transferred to Eppendorff tube, then 20 μL methanol, and 300 μL IS solution (50 ng/mL) were added to it. After Vortexing for 1 min and centrifuging for 5 min at 15,000 rpm, 5 μL of supernatant was injected into LC/MS/MS.
The concentrations in plasma below the limit of quantitation (LOQ=5 ng/mL) were designated as zero. The pharmacokinetic data analysis was performed using noncompartmental analysis modules in WinNonlin2.0.

[21] = cited from earlier work

Structure (SMILES)	MIC90 (S. pyogenes) [µg/mL]	MIC90 (community-acquired MRSA) [µg/mL]	MIC90 [1] [µg/mL]	AUC(0-t) (in vivo [3]) [ng·h/mL]	half-life (in vivo [3]; female) [h]	half-life (in vivo [3]; male) [h]	MIC90 [6] [µg/mL]	MIC90 [7] [µg/mL]	MIC90 [8] [µg/mL]	MIC90 [9] [µg/mL]	MIC90 [10] [µg/mL]	MIC90 (S. agalactiae) [µg/mL]	MIC90 [11] [µg/mL]	MIC90 [12] [µg/mL]	MIC90 [13] [µg/mL]	MIC90 (M. catarrhalis) [µg/mL]	activity against antibiotic resistant Grampositive pathogens [2]	activity (H. influenzae)	IC50 [5] [µM]	mitochondria toxicity [5]	further results
[2H]C([2H])(NC(C)=O)[C@H]1CN(c2ccc(N3C([2H])([2H])C([2H])([2H])OC([2H])([2H])C3([2H])[2H])c(F)c2)C(=O)O1 [Compound 100]	1 (≈ 2.88 µM)	2 (≈ 5.76 µM)	4 (≈ 11.5 µM)	16400	6.4	6.2	–	–	–	–	–	–	–	–	–	–	good activity	poor activity	9.3	comparable to that of linezolid	rate of metabolism versus linezolid (chimpanzee studies, in words): more slowly metabolized than linezolid; amount of deuterated M6 metabolite versus linezolid M6 metabolite ([4]; chimpanzee urine): essentially the same; amount excreted intact in the urine versus linezolid ([4]; chimpanzee, regardless of route or sex): approximately twice as much
[2H]C1([2H])CN(c2ccc(N3C[C@H](CNC(C)=O)OC3=O)cc2F)CC([2H])([2H])O1 [Compound 103, (S)—N-((3-(3-fluoro-4-(4-morpholino-2,2,6,6-d4)-phenyl)-2-oxooxazolidin-5-yl)methyl)acetamide]	–	–	–	–	–	–	–	–	–	–	–	–	–	–	–	–	–	–	9.7	comparable to that of linezolid	–
CC(=O)NCC1CN(c2ccc(N(CCO)CC(=O)O)c(F)c2)C(=O)O1 (stereo not shown) [Compound M4]	–	–	–	–	–	–	–	–	–	–	–	–	–	–	–	–	–	–	–	–	activity of metabolite [16]: inactive
CC(=O)NCC1CN(c2ccc(NCCOCC(=O)O)c(F)c2)C(=O)O1 (stereo not shown) [Compound M6]	–	–	–	–	–	–	–	–	–	–	–	–	–	–	–	–	–	–	–	–	activity of metabolite [16]: inactive

Now from value to compound, other results behind:

MIC90 (S. pyogenes) [µg/mL]	MIC90 (community-acquired MRSA) [µg/mL]	MIC90 [1] [µg/mL]	AUC(0-t) (in vivo [3]) [ng·h/mL]	half-life (in vivo [3]; female) [h]	half-life (in vivo [3]; male) [h]	MIC90 [6] [µg/mL]	MIC90 [7] [µg/mL]	MIC90 [8] [µg/mL]	MIC90 [9] [µg/mL]	MIC90 [10] [µg/mL]	MIC90 (S. agalactiae) [µg/mL]	MIC90 [11] [µg/mL]	MIC90 [12] [µg/mL]	MIC90 [13] [µg/mL]	MIC90 (M. catarrhalis) [µg/mL]	Structure (SMILES)	activity against antibiotic resistant Grampositive pathogens [2]	activity (H. influenzae)	IC50 [5] [µM]	mitochondria toxicity [5]	further results
1 (≈ 2.9 µM)	2 (≈ 5.79 µM)	4 (≈ 11.6 µM)	–	–	–	2 (≈ 5.79 µM)	2 (≈ 5.79 µM)	2 (≈ 5.79 µM)	2 (≈ 5.79 µM)	2 (≈ 5.79 µM)	2 (≈ 5.79 µM)	2 (≈ 5.79 µM)	2 (≈ 5.79 µM)	2 (≈ 5.79 µM)	4 (≈ 11.6 µM)	[2H]C1([2H])OC([2H])([2H])C([2H])([2H])N(c2ccc(N3C[C@H](CNC(C)=O)OC3=O)cc2F)C1([2H])[2H] [Compound 101]	good activity	poor activity	10.5	comparable to that of linezolid	MIC90 [14]: 4 µg/mL (≈ 11.6 µM); MIC90 [15]: 2 µg/mL (≈ 5.79 µM); % increase in AUC (both, chimpanzee, in vivo, iv): 31%; % increase in Half-life (both, chimpanzee, in vivo, iv): 30%; % increase in AUC (both, chimpanzee, in vivo, po): 41%; % increase in Cmax (both, chimpanzee, in vivo, po): 22%
1 (≈ 2.96 µM)	2 (≈ 5.93 µM)	4 (≈ 11.9 µM)	11300	4.5	4.5	2 (≈ 5.93 µM)	2 (≈ 5.93 µM)	2 (≈ 5.93 µM)	2 (≈ 5.93 µM)	2 (≈ 5.93 µM)	2 (≈ 5.93 µM)	2 (≈ 5.93 µM)	2 (≈ 5.93 µM)	2 (≈ 5.93 µM)	8 (≈ 23.7 µM)	CC(=O)NC[C@H]1CN(c2ccc(N3CCOCC3)c(F)c2)C(=O)O1 [Linezolid, (S)—N-[[3-[3-Fluoro-4-(4-morpholinyl)phenyl]-2-oxo-5-oxazolidinyl]methyl]-acetamide, reference compound]	–	poor activity	7.8	–	Cyp substrate, inhibitor or inducer [17]: not a substrate, inhibitor, or inducer; efficacy in treatment of infections [18]: effective; MIC90 [14]: 4 µg/mL (≈ 11.9 µM); MIC90 [15]: 2 µg/mL (≈ 5.93 µM); administered dose found in the urine as the parent compound [19]: Approximately 35%; dose accounted for as the two metabolites (M4, M6) [19]: 50%; Tmax (in vivo [20]): 0.83 ± 1.01 h; tolerability ([21]; 725 mg three times a day, increase in serum creatinine): could not be tolerated; myelosuppression ([21]; patients receiving linezolid, reversible): Myelosuppression has been reported
